Source: PubChem BioAssay AID248 (DTP/NCI, 2004)
Where “and” joins values, the source holds several entries; their conditions need not be identical. Equal values may be shown once. Toxic doses and inconclusive results are not listed. Cut-off read from the data, not from the text of the source: active = T/C of 150% or more; inactive = T/C below 125%.

System: L1210 leukemia ip in BDF1 mice, survival T/C
Assay: NCI In Vivo Anticancer Drug Screen. Data for tumor model L1210 Leukemia (intraperitoneal) in B6D2F1 (BDF1) mice
Settings: endpoint: mean survival time, higher = longer survival
Procedure, shortened: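 Survival endpoint. Drug-treated group vs vehicle group, expressed as T divided by C. Tumor passaged by transplantation.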

[1] = dose: 50.0 mg/kg/injection, schedule: Q01DX009 (ip), vehicle: Klucel (hydroxypropylcellulose) (HPC)
[2] = dose: 100.0 mg/kg/injection, schedule: Q01DX001 (ip), vehicle: Klucel (hydroxypropylcellulose) (HPC)
[3] = dose: 100.0 mg/kg/injection, schedule: Q01DX009 (ip), vehicle: Klucel (hydroxypropylcellulose) (HPC)
[4] = dose: 200.0 mg/kg/injection, schedule: Q01DX001 (ip), vehicle: Klucel (hydroxypropylcellulose) (HPC)
[5] = dose: 100.0 mg/kg/injection, schedule: Q04DX002 (ip), vehicle: Klucel (hydroxypropylcellulose) (HPC)
[6] = dose: 200.0 mg/kg/injection, schedule: Q01DX009 (ip), vehicle: Klucel (hydroxypropylcellulose) (HPC)
[7] = dose: 100.0 mg/kg/injection, schedule: Q04DX003 (ip), vehicle: saline with Tween-80
[8] = dose: 200.0 mg/kg/injection, schedule: Q04DX003 (ip), vehicle: saline with Tween-80
[9] = dose: 400.0 mg/kg/injection, schedule: Q04DX003 (ip), vehicle: saline with Tween-80
[10] = dose: 100.0 mg/kg/injection, schedule: Q01DX009 (ip), vehicle: saline with Tween-80
[11] = dose: 200.0 mg/kg/injection, schedule: Q01DX009 (ip), vehicle: saline with Tween-80
[12] = dose: 400.0 mg/kg/injection, schedule: Q01DX009 (ip), vehicle: saline with Tween-80
[13] = dose: 400.0 mg/kg/injection, schedule: Q01DX001 (ip), vehicle: saline

Measured: T/C

Cc1cc(C(O)c2ccccn2)c2ccccc2n1 (configuration not stated)
inactive: [1] 102 % of control | [2] 106 % of control | [3] 96 % of control | [4] 96 % of control

CC1CC[N-]CC1.CC1CC[N-]CC1.[Br][Pt+2]([Br])([Br])[Br]
inactive: dose: 6.25 mg/kg/injection, schedule: Q01DX009 (ip), vehicle: saline with Tween-80 108 % of control | dose: 12.5 mg/kg/injection, schedule: Q01DX009 (ip), vehicle: saline with Tween-80 113 % of control | dose: 12.5 mg/kg/injection, schedule: Q04DX003 (ip), vehicle: saline with Tween-80 104 % of control | dose: 25.0 mg/kg/injection, schedule: Q04DX003 (ip), vehicle: saline with Tween-80 105 % of control

CC(C)C(=O)NC1CCCCC1
inactive: dose: 25.0 mg/kg/injection, schedule: Q04DX002 (ip), vehicle: Klucel (hydroxypropylcellulose) (HPC) 111 % of control | dose: 50.0 mg/kg/injection, schedule: Q04DX002 (ip), vehicle: Klucel (hydroxypropylcellulose) (HPC) 111 % of control | [5] 101 % of control

CCCCCCCCCCCCCCCC
inactive: dose: 25.0 mg/kg/injection, schedule: Q04DX003 (ip), vehicle: Klucel (hydroxypropylcellulose) (HPC) 96 % of control | dose: 50.0 mg/kg/injection, schedule: Q04DX003 (ip), vehicle: Klucel (hydroxypropylcellulose) (HPC) 94 % of control | [3] 109 % of control | dose: 100.0 mg/kg/injection, schedule: Q04DX003 (ip), vehicle: Klucel (hydroxypropylcellulose) (HPC) 100 % of control and 104 % of control | [6] 96 % of control | dose: 200.0 mg/kg/injection, schedule: Q04DX003 (ip), vehicle: Klucel (hydroxypropylcellulose) (HPC) 102 % of control | dose: 400.0 mg/kg/injection, schedule: Q01DX009 (ip), vehicle: Klucel (hydroxypropylcellulose) (HPC) 89 % of control | dose: 400.0 mg/kg/injection, schedule: Q04DX003 (ip), vehicle: Klucel (hydroxypropylcellulose) (HPC) 97 % of control

ClCC1CC2C=CC1C2 (configuration not stated)
inactive: dose: 12.5 mg/kg/injection, schedule: Q01DX009 (ip), vehicle: Klucel (hydroxypropylcellulose) (HPC) 100 % of control | dose: 25.0 mg/kg/injection, schedule: Q01DX009 (ip), vehicle: Klucel (hydroxypropylcellulose) (HPC) 100 % of control | dose: 25.0 mg/kg/injection, schedule: Q04DX002 (ip), vehicle: saline with Tween-80 102 % of control | [1] 93 % of control and 98 % of control | dose: 50.0 mg/kg/injection, schedule: Q04DX002 (ip), vehicle: saline with Tween-80 88 % of control

O=C1CC[C@H](NC(=O)OCc2ccccc2)C(=O)O1
inactive: [7] 100 % of control | [8] 100 % of control | [9] 97 % of control

OCC1CC(n2cnc3c(Cl)ncnc32)C(O)C1O (configuration not stated)
inactive: dose: 75.0 mg/kg/injection, schedule: Q01DX009 (ip), vehicle: saline with Tween-80 107 % of control | [10] 101 % of control | dose: 150.0 mg/kg/injection, schedule: Q01DX009 (ip), vehicle: saline with Tween-80 92 % of control

COC(=O)c1cc(=O)c2c(=O)n(Cc3ccccc3)c(=O)n(Cc3ccccc3)c2[nH]1
inactive: [2] 106 % of control | [4] 100 % of control | dose: 400.0 mg/kg/injection, schedule: Q01DX001 (ip), vehicle: Klucel (hydroxypropylcellulose) (HPC) 118 % of control

C=[CH][Pb]([CH]=C)([O]C(=O)C(C)C)[O]C(=O)C(C)C
inactive: dose: 5.0 mg/kg/injection, schedule: Q04DX003 (ip), vehicle: saline 104 % of control | dose: 10.0 mg/kg/injection, schedule: Q04DX003 (ip), vehicle: saline 106 % of control | dose: 20.0 mg/kg/injection, schedule: Q04DX003 (ip), vehicle: saline 101 % of control

NNC(=O)CNc1cccc(I)c1
inactive: [5] 102 % of control | dose: 200.0 mg/kg/injection, schedule: Q04DX002 (ip), vehicle: Klucel (hydroxypropylcellulose) (HPC) 95 % of control | dose: 400.0 mg/kg/injection, schedule: Q04DX002 (ip), vehicle: Klucel (hydroxypropylcellulose) (HPC) 109 % of control

CC(C)CC(=O)Nc1ccc(S(=O)(=O)NCC(C)(C)O)cc1
inactive: [7] 98 % of control | [8] 98 % of control | [9] 95 % of control

O=C(/C(=C/c1cccc(Cl)c1)c1ccccc1)c1ccc(O)cc1
inactive: dose: 100.0 mg/kg/injection, schedule: Q01DX001 (ip), vehicle: carboxymethylcellulose (CMC) 101 % of control | dose: 200.0 mg/kg/injection, schedule: Q01DX001 (ip), vehicle: carboxymethylcellulose (CMC) 90 % of control

NC(=O)c1c(Br)c(Br)c(Br)c(Br)c1C(=O)O (tested in a mixture with another compound)
inactive: dose: 50.0 mg/kg/injection, schedule: Q04DX003 (ip), vehicle: saline with Tween-80 96 % of control | [7] 91 % of control and 100 % of control and 90 % of control | [8] 93 % of control and 98 % of control | [9] 93 % of control and 90 % of control

O=Cc1ccc(C(=O)O)cc1
inactive: [7] 98 % of control | [8] 96 % of control | [9] 95 % of control

COc1ccccc1OC(=O)Nc1ccccc1F
inactive: [10] 97 % of control | [11] 96 % of control | [12] 118 % of control

O=C(Cc1ccccc1)Nc1cc(C(F)(F)F)ccc1Cl
inactive: dose: 100.0 mg/kg/injection, schedule: Q04DX002 (ip), vehicle: saline 100 % of control | dose: 200.0 mg/kg/injection, schedule: Q04DX002 (ip), vehicle: saline 93 % of control | dose: 400.0 mg/kg/injection, schedule: Q04DX002 (ip), vehicle: saline 100 % of control

CCCCOCN(C(=O)CCl)c1c(CC)cccc1CC
inactive: [10] 101 % of control | [11] 110 % of control | [12] 89 % of control

O=C(Nc1ccc(CC2=NCCN2)cc1)c1cccc(C(=O)Nc2ccc(CC3=NCCN3)cc2)c1
inactive: dose: 6.5 mg/kg/injection, schedule: Q01DX Z (ip), vehicle: carboxymethylcellulose (CMC) 100 % of control | dose: 9.7 mg/kg/injection, schedule: Q01DX Z (ip), vehicle: carboxymethylcellulose (CMC) 93 % of control | dose: 14.6 mg/kg/injection, schedule: Q01DX Z (ip), vehicle: carboxymethylcellulose (CMC) 94 % of control | dose: 22.0 mg/kg/injection, schedule: Q01DX Z (ip), vehicle: carboxymethylcellulose (CMC) 94 % of control | dose: 22.2 mg/kg/injection, schedule: Q01DX Z (ip), vehicle: carboxymethylcellulose (CMC) 95 % of control

O=C(O)CC(NC(=O)OCc1ccccc1)C(=O)O (configuration not stated)
inactive: [1] 95 % of control | [3] 92 % of control | dose: 100.0 mg/kg/injection, schedule: Q01DX009 (ip), vehicle: saline 114 % of control | [6] 98 % of control | dose: 200.0 mg/kg/injection, schedule: Q01DX009 (ip), vehicle: saline 113 % of control | dose: 400.0 mg/kg/injection, schedule: Q01DX009 (ip), vehicle: saline 107 % of control

COC(=O)CC[N+]12CN3CN(CN(C3)C1)C2
inactive: dose: 100.0 mg/kg/injection, schedule: Q01DX001 (ip), vehicle: saline 91 % of control | dose: 100.0 mg/kg/injection, schedule: Q04DX003 (ip), vehicle: saline 106 % of control | dose: 200.0 mg/kg/injection, schedule: Q01DX001 (ip), vehicle: saline 100 % of control | dose: 200.0 mg/kg/injection, schedule: Q04DX003 (ip), vehicle: saline 106 % of control | [13] 96 % of control | dose: 400.0 mg/kg/injection, schedule: Q04DX003 (ip), vehicle: saline 105 % of control

CN=C(N)NN
inactive: dose: 30.0 mg/kg/injection, schedule: Q01DX Z (ip), vehicle: methylcellulose (MC) 102 % of control | dose: 60.0 mg/kg/injection, schedule: Q01DX Z (ip), vehicle: methylcellulose (MC) 97 % of control | dose: 120.0 mg/kg/injection, schedule: Q01DX Z (ip), vehicle: methylcellulose (MC) 105 % of control | dose: 175.0 mg/kg/injection, schedule: Q01DX001 (ip), vehicle: saline 105 % of control | dose: 240.0 mg/kg/injection, schedule: Q01DX Z (ip), vehicle: methylcellulose (MC) 98 % of control | dose: 265.0 mg/kg/injection, schedule: Q01DX001 (ip), vehicle: saline 104 % of control | dose: 375.0 mg/kg/injection, schedule: Q01DX Z (ip), vehicle: methylcellulose (MC) 111 % of control | [13] 98 % of control | dose: 480.0 mg/kg/injection, schedule: Q01DX Z (ip), vehicle: methylcellulose (MC) 107 % of control | dose: 600.0 mg/kg/injection, schedule: Q01DX001 (ip), vehicle: saline 104 % of control
